Assay [1] addresses T1, IKK-β (Homo sapiens, UniProt O14920).
T1 construct: purchased Promega
T1 sequence (O14920 1-756): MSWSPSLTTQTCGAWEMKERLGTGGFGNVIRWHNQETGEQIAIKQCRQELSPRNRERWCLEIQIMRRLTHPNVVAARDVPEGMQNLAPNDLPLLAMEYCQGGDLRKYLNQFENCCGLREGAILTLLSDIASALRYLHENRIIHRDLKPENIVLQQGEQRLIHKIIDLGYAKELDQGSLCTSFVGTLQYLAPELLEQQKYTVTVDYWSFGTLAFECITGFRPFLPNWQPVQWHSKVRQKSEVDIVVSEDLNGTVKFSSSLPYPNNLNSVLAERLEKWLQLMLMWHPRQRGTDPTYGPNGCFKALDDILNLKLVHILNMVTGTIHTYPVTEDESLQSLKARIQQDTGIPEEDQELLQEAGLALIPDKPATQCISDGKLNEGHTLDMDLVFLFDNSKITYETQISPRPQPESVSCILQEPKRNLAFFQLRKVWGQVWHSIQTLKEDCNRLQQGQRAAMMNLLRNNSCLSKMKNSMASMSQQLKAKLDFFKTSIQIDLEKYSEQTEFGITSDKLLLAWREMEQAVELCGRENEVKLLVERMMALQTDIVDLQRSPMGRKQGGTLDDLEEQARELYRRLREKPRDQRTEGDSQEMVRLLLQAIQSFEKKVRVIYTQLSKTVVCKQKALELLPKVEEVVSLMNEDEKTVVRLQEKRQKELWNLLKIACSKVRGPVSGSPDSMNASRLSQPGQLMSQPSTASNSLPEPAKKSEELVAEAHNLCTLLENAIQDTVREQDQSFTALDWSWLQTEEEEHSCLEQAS
Briefly: ADP-Glo kinase assay, IKK-β inhibition. The format is biochemical. The following applies: for inhibition at 10 µM: mean ± SD, read-out: % inh. at 10 µM IKK-β. From the text:
(§1) We evaluated the inhibitory activity of the final compounds against GSK-3β, IKK-β, and ROCK-1 kinases using the commercially available ADP-Glo™ kinase assay. The method was based on the measurement of luminescence that correlates with kinase activity. […] The latter are inhibitors of the kinases of interest and were integral to the design of our studies.
(§2) Promega’s Kinase Enzyme Systems (Promega; Madison, WI, USA) were used to determine the activities of the tested compounds against the human recombinant kinases GSK-3β, IKK- β, and ROCK-1. The assays were performed according to the provided manufacturer’s instruction, based on the optimized conditions of the enzymatic reactions, using the low-volume, white polystyrene, 384-well plates. The ADP-Glo™ Assay (Promega; Madison, WI, USA) was used for bioluminescent detection of the kinase activity. Stock solutions of the tested compounds in DMSO (1mM) were diluted with the Kinase Assay Buffer before use (40 mM Tris, pH 7.5, enriched with 50 µM dithiothreitol; DTT), giving the final desired concentrations. The kinase enzymes, substrates, and ATP solutions were also diluted with the assay buffer prior to use. The GSK-3β, IKK-β, and ROCK-1 substrates were derived from human muscle glycogen synthase 1, human IkBA, and human 40S ribosomal protein S6, respectively. The assay procedure was as follows: At first, the appropriate kinase enzyme (GSK-3β: 10 ng per well; IKK-β: 45 ng per well; ROCK-1: 24 ng per well) was incubated with the tested sample (10 µM in well) for 5 min. The DMSO solution (1% in well) was used in the blank samples instead of the tested inhibitors. After the incubation period, ATP (25 µM per well in the case of GSK-3β and IKK-β kinases; 5 µM per well in the case of ROCK-1 kinase) and an appropriate enzyme substrate (0.2 µg/µL in well) were added to start the enzymatic reaction. The reaction mixture was kept at room temperature for 1 h; then, the ADP-Glo™ reagent was added, to terminate the kinase reaction and deplete any remaining ATP. After 40 min, a second reagent (Kinase Detection Reagent) was applied to convert the obtained ADP to ATP and to generate light from the newly synthesized ATP using a luciferase/luciferin reaction. The mixture was incubated for another 30 min at room temperature before the luminescence was measured. The calculations of the percent of kinases’ inhibition by tested compounds were based on the equation 100 − (S/B) × 100; S and B are the enzyme activities with and without the tested sample, respectively. […] Each compound was evaluated in two independent experiments, with every data point collected in duplicate.

The target of assay [2] is T2, ROCK-1 (Homo sapiens, UniProt Q13464).
T2 construct: purchased Promega
Briefly: ADP-Glo kinase assay, ROCK-1 inhibition. The format is biochemical.
From the text: as §1
Promega’s Kinase Enzyme Systems (Promega; Madison, WI, USA) were used to determine the activities of the tested compounds against the human recombinant kinases GSK-3β, IKK- β, and ROCK-1. The assays were performed according to the provided manufacturer’s instruction, based on the optimized conditions of the enzymatic reactions, using the low-volume, white polystyrene, 384-well plates. The ADP-Glo™ Assay (Promega; Madison, WI, USA) was used for bioluminescent detection of the kinase activity. Stock solutions of the tested compounds in DMSO (1mM) were diluted with the Kinase Assay Buffer before use (40 mM Tris, pH 7.5, enriched with 50 µM dithiothreitol; DTT), giving the final desired concentrations. The kinase enzymes, substrates, and ATP solutions were also diluted with the assay buffer prior to use. The GSK-3β, IKK-β, and ROCK-1 substrates were derived from human muscle glycogen synthase 1, human IkBA, and human 40S ribosomal protein S6, respectively. […] The DMSO solution (1% in well) was used in the blank samples instead of the tested inhibitors. After the incubation period, ATP (25 µM per well in the case of GSK-3β and IKK-β kinases; 5 µM per well in the case of ROCK-1 kinase) and an appropriate enzyme substrate (0.2 µg/µL in well) were added to start the enzymatic reaction. The reaction mixture was kept at room temperature for 1 h; then, the ADP-Glo™ reagent was added, to terminate the kinase reaction and deplete any remaining ATP. After 40 min, a second reagent (Kinase Detection Reagent) was applied to convert the obtained ADP to ATP and to generate light from the newly synthesized ATP using a luciferase/luciferin reaction. The mixture was incubated for another 30 min at room temperature before the luminescence was measured. The calculations of the percent of kinases’ inhibition by tested compounds were based on the equation 100 − (S/B) × 100; S and B are the enzyme activities with and without the tested sample, respectively. […]. IC50 results were obtained using nonlinear regression (GraphPad Prism 9; GraphPad Software, San Diego, CA, USA) by plotting the residual enzyme activities against the applied inhibitor concentration. Each compound was evaluated in two independent experiments, with every data point collected in duplicate.

For a further assay, the target named is GSK-3β (Homo sapiens, UniProt P49841). Nature of the assay: ADP-Glo kinase assay, GSK-3β inhibition. The following applies: for inhibition at 10 µM: mean ± SD, read-out: % inh. at 10 µM GSK-3β. It is filed as biochemical. Further details: purchased Promega.
From the text: as §1, §2

For assay [3], the system named is ROCK-1. Also on record: method as in PMID 28284870. The following applies: Figure 1; cited from earlier work.
For assay [4], the system named is IKK-β. Also on record: method as in PMID 15125939. Conditions: Figure 1; cited from earlier work.

We go through three compounds from publication PMC11173485, “Connecting GSK-3β Inhibitory Activity with IKK-β or ROCK-1 Inhibition to Target Tau Aggregation and Neuroinflammation in Alzheimer’s Disease—Discovery, In Vitro and In Cellulo Activity of Thiazole-Based Inhibitors” (Molecules, 2024).

Chain of GSK-3β (P49841 whole entry): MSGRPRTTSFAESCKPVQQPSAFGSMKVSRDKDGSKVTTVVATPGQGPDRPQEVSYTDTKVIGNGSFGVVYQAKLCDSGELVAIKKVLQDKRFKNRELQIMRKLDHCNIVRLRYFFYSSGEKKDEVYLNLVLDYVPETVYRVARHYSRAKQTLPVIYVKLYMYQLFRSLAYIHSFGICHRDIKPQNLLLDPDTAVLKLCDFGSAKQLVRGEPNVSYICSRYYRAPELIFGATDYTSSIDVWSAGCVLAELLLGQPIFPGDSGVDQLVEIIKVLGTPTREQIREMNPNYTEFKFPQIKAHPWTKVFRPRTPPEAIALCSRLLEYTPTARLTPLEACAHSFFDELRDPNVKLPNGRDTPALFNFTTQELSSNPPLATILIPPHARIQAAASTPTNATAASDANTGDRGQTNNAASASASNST
T2 sequence (Q13464 whole entry): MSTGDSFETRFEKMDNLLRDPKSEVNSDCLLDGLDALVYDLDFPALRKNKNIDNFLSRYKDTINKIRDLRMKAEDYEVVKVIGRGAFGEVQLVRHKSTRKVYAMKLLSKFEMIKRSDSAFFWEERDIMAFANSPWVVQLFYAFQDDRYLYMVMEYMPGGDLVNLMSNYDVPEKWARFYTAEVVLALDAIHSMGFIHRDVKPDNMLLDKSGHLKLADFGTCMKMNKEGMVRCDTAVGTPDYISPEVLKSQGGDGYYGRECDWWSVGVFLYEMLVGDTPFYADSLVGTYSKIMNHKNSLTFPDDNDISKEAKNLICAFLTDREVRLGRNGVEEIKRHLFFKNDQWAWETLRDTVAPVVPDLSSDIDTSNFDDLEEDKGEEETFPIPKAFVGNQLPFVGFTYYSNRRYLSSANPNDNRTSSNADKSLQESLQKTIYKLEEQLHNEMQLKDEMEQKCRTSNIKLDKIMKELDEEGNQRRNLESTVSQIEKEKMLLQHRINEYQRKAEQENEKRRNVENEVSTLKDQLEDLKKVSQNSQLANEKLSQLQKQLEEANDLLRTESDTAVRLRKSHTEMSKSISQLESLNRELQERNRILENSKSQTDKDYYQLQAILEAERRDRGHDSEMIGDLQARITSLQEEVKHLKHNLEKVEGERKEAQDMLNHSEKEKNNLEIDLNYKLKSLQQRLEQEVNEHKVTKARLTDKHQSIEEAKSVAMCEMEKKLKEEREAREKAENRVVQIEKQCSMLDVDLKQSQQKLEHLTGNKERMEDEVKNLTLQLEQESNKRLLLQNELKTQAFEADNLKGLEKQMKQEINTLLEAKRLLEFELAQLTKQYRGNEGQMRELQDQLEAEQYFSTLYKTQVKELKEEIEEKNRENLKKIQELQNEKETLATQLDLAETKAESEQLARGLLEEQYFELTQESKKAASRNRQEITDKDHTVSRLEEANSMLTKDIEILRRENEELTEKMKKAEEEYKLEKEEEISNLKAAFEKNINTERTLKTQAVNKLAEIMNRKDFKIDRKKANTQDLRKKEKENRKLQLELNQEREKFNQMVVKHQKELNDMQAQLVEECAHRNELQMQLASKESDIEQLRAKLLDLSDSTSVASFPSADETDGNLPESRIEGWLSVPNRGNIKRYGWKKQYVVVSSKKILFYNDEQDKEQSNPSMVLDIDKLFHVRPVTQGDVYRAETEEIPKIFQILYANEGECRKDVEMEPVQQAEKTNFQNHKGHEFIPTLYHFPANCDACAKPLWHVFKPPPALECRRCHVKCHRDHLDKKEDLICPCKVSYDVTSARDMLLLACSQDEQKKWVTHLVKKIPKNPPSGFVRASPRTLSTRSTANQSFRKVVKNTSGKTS

As for `CC1(C)NC(=O)c2sc(-c3ccncc3)cc2N1` [I, reference compound], on IKK-β [1], the inhibition at 10 µM turned out to be 46%. The IC50 was 119 ± 6 nM at ROCK-1 [2] (mean ± SEM, ATP 5 µM); 161 ± 2 nM on GSK-3β (mean ± SEM, ATP 25 µM); 90 nM with ROCK-1 [3].

On to `NC(=O)Nc1cc(-c2ccc(F)cc2)sc1C(N)=O` [III, reference compound], for which the 50% inhibitory concentration (IC50) on IKK-β [1] (mean ± SEM, ATP 25 µM) is 405 ± 9 nM; in the assay on IKK-β [4], 63 nM. The inhibition at 10 µM at GSK-3β came to 47%.

On to `CCS(=O)(=O)Nc1cccc(-c2cc3c(s2)C(=O)NC(C)(C)N3)c1` [Compound 55, N-(3-(2,2-Dimethyl-4-oxo-1,2,3,4-tetrahydrothieno [3,2-d]pyrimidin-6-yl)phenyl)ethanesulfonamide], for which the inhibition at 10 µM on IKK-β [1] was 16%; on ROCK-1 [2] (10 µM, mean ± SD, read-out: % inh. at 10 µM ROCK-1) it was below 10%; at GSK-3β, 11%.
